Drawing on US20250059188A1, “ARYLSULPHONAMIDE COMPOUNDS” (Anaxis Pharma Pty Ltd, priority 2021, published 2025), this text covers Kd and IC50 for 14 compounds.

By Kd is commonly meant the equilibrium constant for the complex coming apart. One may read the IC50 as the concentration that inhibits the measured activity by half.

Molecules are shown by their SMILES.

The target of one assay is human MLKL (full length) (Homo sapiens (Human), UniProt Q8NB16). Nature of the assay: KINOMEscan binding assay, human MLKL (full length). Particulars: equilibrium dissociation constant. Summed up:
(§1)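 In this assay, compounds displace DNA- or phage-tagged kinase from an immobilized ligand, and eluted kinase is quantified by qPCR.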

The next assay addresses human RIPK1 (Homo sapiens (Human), UniProt Q13546). Nature of the assay: KINOMEscan binding assay, human RIPK1. The conditions noted are these: equilibrium dissociation constant. Summed up:
as §1

In a further assay the target is human RIPK3 (Homo sapiens (Human), UniProt Q9Y572). In words: KINOMEscan binding assay, human RIPK3. The conditions noted are these: equilibrium dissociation constant. The method in brief:
as §1

Assay [1] relates to U937 human histiocytic leukemia cell line. In words: Inhibition of TSQ induced necroptosis in U937 cells (CellTitre-Glo). The conditions noted are these: Homo sapiens, U-937, TSQ cocktail (TNF, Smac mimetic, Q-VD-OPh), 48 hours, read-out: Inhibition of TSQ-induced necroptosis (IC50 cell-based assay). The method in brief:
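Necroptosis was induced with TNF-Fc (100 ng/ml), Smac mimetic (500 nM) and Q-VD-OPh (10 μM) in 20000 U937 cells/well exposed to a 10-point, 3-fold compound series (top 36 μM, 0.3% DMSO). ATP luminescence read after 48 h; 4-parameter fit gave IC50. Parallel TSQ-free wells assessed compound toxicity.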

For the next assay, the system named is U937 cells. In words: Counter screen: U937 cell viability without TSQ cocktail (off-target effect). More on the design: species or system human. The conditions noted are these: Homo sapiens, U-937, compound without TSQ cocktail, read-out: Off-target effect (IC50 cell-based assay). The method in brief: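 Off-target viability counter screen: compounds titrated 36 μM down 1:3 over 10 points (0.3% DMSO) on 20,000 U937 cells/well, no TNF/Smac mimetic/Q-VD-OPh added, 48 h incubation. ATP-based CellTiter-Glo luminescence, four-parameter logistic IC50.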
A general note: The purpose of a counterscreen is to sort out artefacts and off-target activity.

Chain of human RIPK3 (Q9Y572 whole entry): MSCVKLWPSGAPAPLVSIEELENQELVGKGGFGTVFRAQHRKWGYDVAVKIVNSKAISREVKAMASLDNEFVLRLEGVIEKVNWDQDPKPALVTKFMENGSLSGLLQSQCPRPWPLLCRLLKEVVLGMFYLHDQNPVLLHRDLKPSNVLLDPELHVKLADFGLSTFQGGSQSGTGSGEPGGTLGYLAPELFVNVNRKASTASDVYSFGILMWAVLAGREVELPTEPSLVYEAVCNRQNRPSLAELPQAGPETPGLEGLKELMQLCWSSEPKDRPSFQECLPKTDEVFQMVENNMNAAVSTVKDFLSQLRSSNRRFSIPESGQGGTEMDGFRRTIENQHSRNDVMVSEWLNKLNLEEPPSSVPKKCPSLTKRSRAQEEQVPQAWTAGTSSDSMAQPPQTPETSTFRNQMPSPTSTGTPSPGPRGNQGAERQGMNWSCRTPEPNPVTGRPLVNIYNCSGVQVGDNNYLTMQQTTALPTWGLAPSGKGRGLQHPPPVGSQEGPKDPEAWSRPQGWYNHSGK
Chain of human RIPK1 (Q13546 whole entry): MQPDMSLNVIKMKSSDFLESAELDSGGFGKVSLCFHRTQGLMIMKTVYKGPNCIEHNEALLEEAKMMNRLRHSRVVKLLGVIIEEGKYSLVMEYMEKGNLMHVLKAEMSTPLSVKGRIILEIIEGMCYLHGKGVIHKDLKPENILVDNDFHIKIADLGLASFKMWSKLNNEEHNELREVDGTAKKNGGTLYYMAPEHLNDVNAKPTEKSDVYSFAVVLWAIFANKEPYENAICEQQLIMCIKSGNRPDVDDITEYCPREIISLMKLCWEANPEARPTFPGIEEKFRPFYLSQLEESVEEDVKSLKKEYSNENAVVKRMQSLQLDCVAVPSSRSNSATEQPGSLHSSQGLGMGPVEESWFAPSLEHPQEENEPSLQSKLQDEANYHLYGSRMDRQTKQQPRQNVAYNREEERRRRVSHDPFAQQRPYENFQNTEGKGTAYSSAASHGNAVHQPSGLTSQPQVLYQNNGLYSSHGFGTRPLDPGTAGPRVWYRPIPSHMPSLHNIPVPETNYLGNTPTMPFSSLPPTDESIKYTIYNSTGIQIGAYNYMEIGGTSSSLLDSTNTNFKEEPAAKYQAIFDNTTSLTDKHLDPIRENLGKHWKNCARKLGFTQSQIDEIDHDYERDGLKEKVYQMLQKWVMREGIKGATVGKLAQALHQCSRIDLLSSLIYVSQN
Chain of human MLKL (full length) (Q8NB16 whole entry): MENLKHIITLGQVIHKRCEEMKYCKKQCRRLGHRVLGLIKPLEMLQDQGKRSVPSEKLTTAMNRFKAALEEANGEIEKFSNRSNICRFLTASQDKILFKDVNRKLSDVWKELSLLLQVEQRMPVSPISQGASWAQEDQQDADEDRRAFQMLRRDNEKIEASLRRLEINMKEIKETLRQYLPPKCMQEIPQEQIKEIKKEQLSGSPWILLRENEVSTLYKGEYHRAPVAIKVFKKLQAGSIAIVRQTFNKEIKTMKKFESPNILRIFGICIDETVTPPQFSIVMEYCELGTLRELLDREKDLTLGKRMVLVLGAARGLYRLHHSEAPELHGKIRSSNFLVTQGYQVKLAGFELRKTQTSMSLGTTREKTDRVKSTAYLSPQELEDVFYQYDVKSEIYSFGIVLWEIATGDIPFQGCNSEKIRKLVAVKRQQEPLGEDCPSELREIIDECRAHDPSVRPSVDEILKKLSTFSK

Turning to `C[C@H](Oc1cc(-c2nn(C)c3c(-c4cnn(C5CCOCC5)c4)cnc(N)c23)ccc1NS(C)(=O)=O)c1ccc(F)cc1` [Compound 119, (S)-N-(4-(4-amino-1-methyl-7-(1-(tetrahydro-2H-pyran-4-yl)-1H-pyrazol-4-yl)-1H-pyrazolo[4,3-c]pyridin-3-yl)-2-(1-(4-fluorophenyl)ethoxy)phenyl)methanesulfonamide], the results for the Kd at human MLKL (full length), on human RIPK1 and at human RIPK3 were 0.001 to 0.1 µM, more than 10 µM and more than 10 µM, respectively. The half-maximal inhibitory concentration (IC50) was 0.01 to 1 µM in assay [1] and more than 10 µM with U937 cells.

`C[C@H](Oc1cc(-c2nn(C)c3c(-c4cnn(C(F)F)c4)cnc(N)c23)ccc1NS(=O)(=O)C(F)F)c1ccc(F)cc1` [Compound 123, (S)-N-(4-(4-amino-7-(1-(difluoromethyl)-1H-pyrazol-4-yl)-1-methyl-1H-pyrazolo[4,3-c]pyridin-3-yl)-2-(1-(4-fluorophenyl)ethoxy)phenyl)-1,1-difluoromethanesulfonamide]: the values for the Kd on human MLKL (full length), on human RIPK1 and on human RIPK3 were less than 0.001 µM, more than 10 µM and more than 10 µM, respectively. For the same compound, the IC50 was less than 0.01 µM in assay [1] and more than 10 µM in the assay on U937 cells.

Consider `C[C@H](Oc1cc(-c2nn(C)c3c(-c4ccn(C)c4)cnc(N)c23)ccc1NS(=O)(=O)C(F)F)c1ccc(F)cc1` [Compound 126, (S)-N-(4-(4-amino-1-methyl-7-(1-methyl-1H-pyrrol-3-yl)-1H-pyrazolo[4,3-c]pyridin-3-yl)-2-(1-(4-fluorophenyl)ethoxy)phenyl)-1,1-difluoromethanesulfonamide], for which the Kd at human MLKL (full length) was 0.001 to 0.1 µM; at human RIPK1 it was more than 10 µM; on human RIPK3 it was more than 10 µM. Besides, the IC50 in assay [1] was 0.01 to 1 µM; in the assay on U937 cells, more than 10 µM.

With `C[C@H](Oc1cc(-c2nn(C)c3c(C#CC4CCN(CC(F)(F)F)CC4)cnc(N)c23)ccc1NS(=O)(=O)C(F)F)c1ccc(F)cc1` [Compound 128, (S)-N-(4-(4-amino-1-methyl-7-((1-(2,2,2-trifluoroethyl)piperidin-4-yl)ethynyl)-1H-pyrazolo[4,3-c]pyridin-3-yl)-2-(1-(4-fluorophenyl)ethoxy)phenyl)-1,1-difluoromethanesulfonamide], the results for the Kd on human MLKL (full length), on human RIPK1 and at human RIPK3 were 0.001 to 0.1 µM, more than 10 µM and more than 10 µM, respectively. Moreover, the IC50 in assay [1] is 0.01 to 1 µM; with U937 cells, more than 10 µM.

Turning to `C[C@H](Oc1cc(-c2nn(C)c3c(C#N)cnc(N)c23)ccc1NS(=O)(=O)C(F)F)c1ccc(F)cc1` [Compound 133, N-(4-{4-amino-7-cyano-1-methyl-1H-pyrazolo[4,3-c]pyridin-3-yl}-2-[(1S)-1-(4-fluorophenyl)ethoxy]phenyl)-1,1-difluoromethanesulfonamide], the Kd on human MLKL (full length) was less than 0.001 µM; on human RIPK1 it was more than 10 µM; on human RIPK3 it was more than 10 µM. The IC50 in assay [1] is 0.01 to 1 µM; in the assay on U937 cells, more than 10 µM.

In the case of `C[C@H](Oc1cc(-c2nn(C)c3c(-c4cnn(C(F)(F)F)c4)cnc(N)c23)ccc1NS(=O)(=O)C(F)F)c1ccc(F)cc1` [Compound 134, (S)-N-(4-(4-amino-1-methyl-7-(1-(trifluoromethyl)-1H-pyrazol-4-yl)-1H-pyrazolo[4,3-c]pyridin-3-yl)-2-(1-(4-fluorophenyl)ethoxy)phenyl)-1,1-difluoromethanesulfonamide], the Kd is 0.001 to 0.1 µM at human MLKL (full length), more than 10 µM at human RIPK1 and more than 10 µM on human RIPK3. Besides, the IC50 in assay [1] is 0.01 to 1 µM; in the assay on U937 cells, more than 10 µM.

Consider `Cn1nc(-c2ccc(NS(=O)(=O)C(F)F)cc2OCc2cccc(F)c2)c2c(N)ncc(-c3cnn(C4CCOCC4)c3)c21` [Compound 135, N-(4-(4-amino-1-methyl-7-(1-(tetrahydro-2H-pyran-4-yl)-1H-pyrazol-4-yl)-1H-pyrazolo[4,3-c]pyridin-3-yl)-3-((3-fluorobenzyl)oxy)phenyl)-1,1-difluoromethanesulfonamide], for which the Kd is less than 0.001 µM on human MLKL (full length), more than 10 µM at human RIPK1 and more than 10 µM at human RIPK3. In addition, the IC50 in assay [1] is 0.01 to 1 µM; in the assay on U937 cells it was more than 10 µM.

As to `CNc1ncc(-n2cc(-c3cnc(N)c4c(-c5ccc(NS(=O)(=O)C(F)F)c(O[C@@H](C)c6ccc(F)cc6)c5)nn(C)c34)cn2)cn1` [Compound 138, (S)-N-(4-(4-amino-1-methyl-7-(1-(2-(methylamino)pyrimidin-5-yl)-1H-pyrazol-4-yl)-1H-pyrazolo[4,3-c]pyridin-3-yl)-2-(1-(4-fluorophenyl)ethoxy)phenyl)-1,1-difluoromethanesulfonamide], the Kd was 0.001 to 0.1 µM at human MLKL (full length), more than 10 µM on human RIPK1 and more than 10 µM on human RIPK3. Moreover, the figures for the IC50 (in assay [1]; with U937 cells) were 0.01 to 1 µM and more than 10 µM, respectively.

For `Cn1nc(-c2ccc(NS(=O)(=O)C(F)F)c(OC3(c4ccc(F)cc4)CC3)c2)c2c(N)ncc(-c3cnn(C4CCOCC4)c3)c21` [Compound 140, N-(4-(4-amino-1-methyl-7-(1-(tetrahydro-2H-pyran-4-yl)-1H-pyrazol-4-yl)-1H-pyrazolo[4,3-c]pyridin-3-yl)-2-(1-(4-fluorophenyl)cyclopropoxy)phenyl)-1,1-difluoromethanesulfonamide], the Kd at human MLKL (full length) was 0.001 to 0.1 µM; on human RIPK1, more than 10 µM; on human RIPK3, more than 10 µM. The 50% inhibitory concentration (IC50) in assay [1] is 0.01 to 1 µM; in the assay with U937 cells, more than 10 µM.

Regarding `C[C@H](Oc1cc(-c2nn(C)c3c(N4CCOCC4)cnc(N)c23)ccc1NS(=O)(=O)C(F)F)c1ccc(F)cc1` [Compound 141, N-{4-[4-amino-1-methyl-7-(morpholin-4-yl)-1H-pyrazolo[4,3-c]pyridin-3-yl]-2-[(1S)-1-(4-fluorophenyl)ethoxy]phenyl}-1,1-difluoromethanesulfonamide], the Kd at human MLKL (full length) was 0.001 to 0.1 µM; on human RIPK1, more than 10 µM; at human RIPK3, more than 10 µM. Further, the half-maximal inhibitory concentration (IC50) in assay [1] is 0.01 to 1 µM; in the assay with U937 cells, more than 10 µM.

As to `Cc1nn(C2CCN(C)C(C)(C)C2)cc1-c1cnc(N)c2c(-c3ccc(NS(=O)(=O)C(F)F)c(O[C@@H](C)c4ccc(F)cc4)c3)nn(C)c12` (stereo partly drawn) [Compound 156, N-(4-(4-amino-1-methyl-7-(3-methyl-1-(1,2,2-trimethylpiperidin-4-yl)-1H-pyrazol-4-yl)-1H-pyrazolo[4,3-c]pyridin-3-yl)-2-((S)-1-(4-fluorophenyl)ethoxy)phenyl)-1,1-difluoromethanesulfonamide], the results for the dissociation constant (Kd) on human MLKL (full length), at human RIPK1 and at human RIPK3 were 0.001 to 0.1 µM, more than 10 µM and more than 10 µM, respectively. In addition, the figures for the IC50 (in assay [1]; with U937 cells) were 0.01 to 1 µM and more than 10 µM, respectively.

Consider `C[C@H](Oc1cc(-c2nn(C)c3c(-c4ccc5[nH]c(=O)n(C)c5c4)cnc(N)c23)ccc1NS(=O)(=O)C(F)F)c1ccc(F)cc1` [Compound 160, (S)-N-(4-(4-amino-1-methyl-7-(3-methyl-2-oxo-2,3-dihydro-1H-benzo[d]imidazol-5-yl)-1H-pyrazolo[4,3-c]pyridin-3-yl)-2-(1-(4-fluorophenyl)ethoxy)phenyl)-1,1-difluoromethanesulfonamide], for which the Kd was less than 0.001 µM at human MLKL (full length), more than 10 µM on human RIPK1 and more than 10 µM at human RIPK3. The values for the IC50 (in assay [1]; with U937 cells) were 0.01 to 1 µM and more than 10 µM, respectively.

Take `C[C@H](Oc1cc(-c2nn(C)c3c(-c4ccc5c(c4)n(C)c(=O)n5C)cnc(N)c23)ccc1NS(=O)(=O)C(F)F)c1ccc(F)cc1` [Compound 161, (S)-N-(4-(4-amino-7-(1,3-dimethyl-2-oxo-2,3-dihydro-1H-benzo[d]imidazol-5-yl)-1-methyl-1H-pyrazolo[4,3-c]pyridin-3-yl)-2-(1-(4-fluorophenyl)ethoxy)phenyl)-1,1-difluoromethanesulfonamide]: the equilibrium dissociation constant (Kd) at human MLKL (full length) was less than 0.001 µM; on human RIPK1, more than 10 µM; on human RIPK3, more than 10 µM. In addition, the figures for the IC50 (in assay [1]; in the assay on U937 cells) were 1 to 10 µM and more than 10 µM, respectively.

For `C[C@H](Oc1cc(-c2nn(C)c3c(-c4ccc5c(c4)CC(=O)N5C)cnc(N)c23)ccc1NS(=O)(=O)C(F)F)c1ccc(F)cc1` [Compound 165, (S)-N-(4-(4-amino-1-methyl-7-(1-methyl-2-oxoindolin-5-yl)-1H-pyrazolo[4,3-c]pyridin-3-yl)-2-(1-(4-fluorophenyl)ethoxy)phenyl)-1,1-difluoromethanesulfonamide], the Kd was 0.001 to 0.1 µM on human MLKL (full length), more than 10 µM at human RIPK1 and more than 10 µM on human RIPK3. In addition, the IC50 in assay [1] was 0.01 to 1 µM; in the assay with U937 cells it was more than 10 µM.
